Results published in patent publication US9943542B2, “Compositions and methods for obtaining an improved lung function” (PHARMALUNDENSIS AB, priority 2013, dated 2018).

Key:
patients with COPD = details: administered orally; cited from earlier work
[1] = tested on: lung function (FEV1) of man with moderately severe COPD; experiment: Sequential 2-week treatments in one person with moderately severe COPD; type: in vivo, human
Experimental: After having stable lung function for around a month, they took 2.73 g activated charcoal in water daily for 2 weeks. […] After that, […] instead took 270 mg I2 daily in a vegetable capsule daily for 2 weeks. […] Thereafter, […] instead took 100 mg potassium perchlorate daily for 2 weeks. […] Following this, […] instead took 3 g IAC (prepared according to example 2, and consisting of 2.73 g activated charcoal with 270 mg iodine) daily for 2 weeks. […] Finally, they took a combination of 100 mg potassium perchlorate and 3 g IAC daily for 2 weeks.

[2] = tested on: patients with stable chronic bronchitis; details: cited from earlier work
[3] = biological target: human sodium/iodide symporter (Homo sapiens, UniProt Q92911); details: versus perchlorate, on a molar concentration basis in serum; cited from earlier work
[4] = biological target: T1, sodium/iodide symporter (NIS) (Homo sapiens, UniProt Q92911); details: humans; cited from earlier work
T1 construct: host or cells: thyroid gland of human subjects (in vivo)
T1 sequence (Q92911 1-643): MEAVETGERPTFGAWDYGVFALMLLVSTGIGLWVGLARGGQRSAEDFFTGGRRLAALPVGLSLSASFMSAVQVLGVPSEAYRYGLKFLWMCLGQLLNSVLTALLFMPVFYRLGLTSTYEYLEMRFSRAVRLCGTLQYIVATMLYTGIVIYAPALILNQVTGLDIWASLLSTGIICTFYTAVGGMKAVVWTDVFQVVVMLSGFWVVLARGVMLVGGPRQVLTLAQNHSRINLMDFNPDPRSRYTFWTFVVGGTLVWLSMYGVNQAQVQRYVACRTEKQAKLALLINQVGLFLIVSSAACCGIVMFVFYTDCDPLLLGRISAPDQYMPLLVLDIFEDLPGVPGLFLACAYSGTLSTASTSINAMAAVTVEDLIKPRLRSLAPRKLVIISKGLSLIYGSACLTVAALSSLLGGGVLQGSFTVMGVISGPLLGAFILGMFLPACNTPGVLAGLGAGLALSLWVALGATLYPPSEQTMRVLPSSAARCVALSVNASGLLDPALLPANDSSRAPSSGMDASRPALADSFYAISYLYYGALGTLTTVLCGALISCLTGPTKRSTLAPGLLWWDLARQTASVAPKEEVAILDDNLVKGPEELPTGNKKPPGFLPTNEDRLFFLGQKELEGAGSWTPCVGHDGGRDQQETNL

[5] = in vivo; cited from earlier work

## II [I2, iodine]
Patients with COPD
  effect on lung function: does not improve the lung function
[1]; in vivo
  effect on lung function (FEV1), in words: did not improve their lung function

## Iodinated glycerol
[2]; 16 weeks treatment
  improvement in pulmonary function: lack significant improvement
[2]; human, in vivo
  side effects: side effects such as iodine poisoning

## N#C[S-].[Na+] [thiocyanate, Thiocyanate]
[3]
  relative potency for inhibiting iodide uptake by the sodium/iodide symporter: lower than that of perchlorate

## [O-][Cl+3]([O-])([O-])O [potassium perchlorate]
[4]
  level that can temporarily inhibit the thyroid gland's ability to adsorb iodine from the bloodstream: above 0.007 mg/(kg·d)
[1]; daily for 2 weeks, one patient
  effect on lung function (FEV1), in words: did not improve the lung function at all
[5]
  metabolism and storage in the body: neither metabolised nor stored in the body
